# Patent publication US11602518B2, “Lipidic furan, pyrrole, and thiophene compounds for use in the treatment of atrophic vaginitis” (Avoscience, LLC, priority 2016, dated 2023)
# Tested on: female subjects diagnosed with vaginal atrophy
# Assay: Double blind placebo control study: tissue morphometry by vaginal biopsy after topical Formula I(n) capsules
# Format: in vivo, human
# Text: The histology and morphometry of vaginal atrophy is characterized by a reduction in dermal and epidermal thickness, dermal collagen content (hydroxyproline), the number of cells in the tissue (by DNA content and histology), and dermal and epidermal protein content as well as reduction in overall dermal metabolism as measured by [^14 C]-glucose. These parameters are all increased by the action of topical administration of Formula I(n).
# In a double blind placebo control study, a baseline tissue morphometry was determined by biopsy on 20 female subjects diagnosed with vaginal atrophy. Subjects applied a capsule daily containing either Formula I(n) (3%) and avocado oil or simply a capsule of avocado oil alone.
# [1] = biopsy after 60 days, daily capsule 3% in avocado oil
# [2] = biopsy after 60 days, daily capsule 3% in avocado oil, over control
smiles,measurement,setting,value
"CCCCC/C=C\C/C=C\CCCCCCCc1ccco1 [Formula I(n), 2-(8Z,11Z-heptadecadienyl)furan]",increase in dermal thickness,"biopsy after 60 days vs baseline, daily capsule 3% in avocado oil, control vehicle 7%",53%
same,increase in epidermal thickness,"biopsy after 60 days vs baseline, daily capsule 3% in avocado oil, control vehicle 9%",76%
same,Dermal fibroblast population (cross section) increase,[1],231%
same,Dermal fibroblast population (number) increase,[1],127%
same,increase in aerobic glucose utilization or metabolism,[1],413%
same,increase in total thickness (epidermal and dermal combined),[1],156%
same,DNA content increase over control,[2],68%
same,Dermal collagen content increase over control,[2],74%
same,Protein content increase over control,[2],122%
same,inflammatory response,"biopsy after 60 days, daily topical capsule, Formula I(n) (3%) and avocado oil",No observable inflammatory response
same,"dermal and epidermal thickness, dermal collagen content, number of cells, dermal and epidermal protein content, overall dermal metabolism","topical administration, summary statement",increased
